Eight compounds from the supplement of paper PMC4862054 can be followed below.

Common to all, as to conditions: 72 h
In assay [1] the test system is HCC1937. In outline: (§1)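 Breast cancer cell lines in 20 µl suspension were seeded onto 384-well plates pre-loaded with compound dissolved in 5 µl medium, then incubated 72 h. For viability, 2.5 µl CellTiter-Blue was added for 2 h at 37 °C and fluorescence read at 560/590 nm. Each plate was normalised to vehicle and a positive kill control and checked by Z'-factor. EC50 comes from the fitted percent-inhibition dose-response curve, censored at the highest concentration; rows with zero drug sensitivity score were dropped.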

Assay [2] concerns Hs578T. Summed up:
as §1

The subject of assay [3] is HCC1599. In outline: as §1
The test system of assay [4] is SK-BR-3. Summed up: as §1
The next assay deals with BT-474. Summed up: as §1
For assay [5], the system named is BT-549. In outline: as §1
Assay [6] concerns HCC1143. In outline: as §1
The subject of assay [7] is HDQ-P1. Summed up:
as §1

For assay [8], the system named is CAL-85-1. Summed up: as §1
In assay [9] the test system is CAL-148. Here is the method:
(§2)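 Drug sensitivity and resistance testing (DSRT) of breast cancer cell lines in 384-well plates, 5 concentrations in 10-fold dilutions over a compound-specific 10,000-fold range. After 72 h, cytotoxicity was read by CellTox Green fluorescence and viability by CellTiter-Glo luminescence (multiplexed), normalised to DMSO and benzethonium chloride controls. EC50 is the inflection point of the fitted dose-response curve (bottom asymptote free, so it can be relative for partial curves) and is censored at the highest tested concentration. Rows with DSS 0 (no meaningful response) were excluded.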

Assay [10] deals with CAL-51. The method, then: as §2
In assay [11] the test system is CAL-148. In outline:
(§3)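 In this assay, breast cancer cell lines spent 72 h with compound at 5 concentrations in 10-fold steps over a compound-specific 10,000-fold range. The first readout was cell death by CellTox Green fluorescence, and the second was viability by CellTiter-Glo luminescence, each normalised per plate to 0.1 % DMSO and a positive kill control. EC50 came from the dose-response curves, censored at the top concentration.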
The source holds these as a separate data set.

Assay [12] has as its system HCC1937. Summed up:
as §3
This is another data set of the same source.

In assay [13] the test system is Hs578T. Summed up:
as §3
This is another data set of the same source.

Assay [14] deals with HCC1599. Summed up:
as §3
This is another data set of the same source.

Assay [15] deals with MDA-MB-436. Summed up:
as §3

Assay [16] has as its system CAL-51. Summed up: as §3
The source holds these as a separate data set.

Assay [17] has as its system SK-BR-3. Summed up:
as §3
The source holds these as a separate data set.

For assay [18], the system named is DU-4475. Summed up: as §3
The subject of assay [19] is BT-549. Summed up: as §3
The source holds these as a separate data set.

The test system of assay [20] is HCC1143. Summed up: as §3
This is another data set of the same source.

Assay [21] relates to CAL-51. In outline: as §1
The source holds these as a separate data set.

Another assay concerns MDA-MB-468. Here is the method: as §2
The subject of assay [22] is MFM-223. The method, then: as §2
For assay [23], the system named is Hs578T. Here is the method: as §2
This is another data set of the same source.

Assay [24] concerns HDQ-P1. Here is the method: as §2
The source holds these as a separate data set.

For assay [25], the system named is MDA-MB-453. Here is the method:
as §2

For assay [26], the system named is BT-549. Here is the method:
as §2
The source holds these as a separate data set.

The test system of assay [27] is MDA-MB-231. Here is the method: as §2
Assay [28] relates to CAL-85-1. Here is the method:
as §2
This is another data set of the same source.

In assay [29] the test system is MCF-10A. The method, then: as §2
In assay [30] the test system is MFM-223. Summed up: as §3
This is another data set of the same source.

Assay [31] deals with MDA-MB-453. In outline: as §3
The source holds these as a separate data set.

Assay [32] concerns CAL-120. In outline: as §3
Assay [33] deals with MDA-MB-231. Summed up:
as §3
The source holds these as a separate data set.

The subject of assay [34] is CAL-85-1. Summed up: as §3
The source holds these as a separate data set.

Assay [35] concerns MCF-10A. Summed up:
as §3
This is another data set of the same source.

The test system of assay [36] is DU-4475. The method, then:
as §2
This is another data set of the same source.

Assay [37] relates to CAL-120. Here is the method:
as §2
This is another data set of the same source.

The subject of assay [38] is CAL-120. Summed up: as §1
This is another data set of the same source.

In assay [39] the test system is MDA-MB-231. Summed up:
as §1
This is another data set of the same source.

Assay [40] deals with DU-4475. Summed up:
as §1
This is another data set of the same source.

For assay [41], the system named is MDA-MB-436. Here is the method:
as §2
The source holds these as a separate data set.

Consider `C[C@]1(O)C[C@@H](c2nc(-c3ccc4ccc(-c5ccccc5)nc4c3)c3c(N)nccn32)C1` [OSI-906], for which the “EC50, CellTiter-Blue viability” value with HCC1937 [1] turned out to be 9.83 µM; with Hs578T [2] it was 1.91 µM; in the assay with HCC1599 [3], 0.204 µM; with SK-BR-3 [4], 0.105 µM; in the assay with BT-474 it was 1.68 µM; in the assay with BT-549 [5], 7.1 µM. Further, the “EC50, CellTiter-Blue viability” value is 0.881 µM in the assay with HCC1143 [6], 0.278 µM in the assay with HDQ-P1 [7] and 7.72 µM in the assay with CAL-85-1 [8].
Take `CC(=O)N(O)CCCCCNC(=O)CCC(=O)N(O)CCCCCNC(=O)CCC(=O)N(O)CCCCCN` [Deferoxamine]: the entries for the “EC50, CellTox Green” value in the assay on CAL-148 [9] and in the assay with CAL-51 [10] were 0.221 µM and 1.9 µM, respectively. Moreover, the “EC50, CellTiter-Glo” value with CAL-148 [11] was 1.92 µM; with HCC1937 [12], 0.696 µM; in the assay with Hs578T [13], 2.66 µM; in the assay with HCC1599 [14], 3.97 µM; with MDA-MB-436 [15], 1.57 µM; with CAL-51 [16], 6.36 µM. Also, the “EC50, CellTiter-Glo” value is 6.45 µM in the assay on SK-BR-3 [17], 3.48 µM with DU-4475 [18], 0.852 µM in the assay on BT-549 [19] and 0.832 µM with HCC1143 [20].
Consider `O=C1CN2Cc3c(ccc(Cl)c3Cl)N=C2N1` [Anagrelide], for which the “EC50, CellTiter-Blue viability” value with HCC1937 [1] is 0.398 µM; in the assay with CAL-51 [21] it was 0.0775 µM. In addition, the “EC50, CellTox Green” value in the assay on CAL-51 [10] was found to be 0.0306 µM. The “EC50, CellTiter-Glo” value in the assay with CAL-51 [16] was > 10 µM.
Consider `C[C@]12CC[C@@H]3c4ccc(OC(=O)N(CCCl)CCCl)cc4CC[C@H]3[C@@H]1CC[C@@H]2O` [Estramustine], for which the “EC50, CellTox Green” value in the assay with CAL-51 [10] came out at 0.131 µM; in the assay on MDA-MB-468 it was 4.99 µM.
Turning to `Cn1cc(C2=Nc3cc(NC(=O)C(N)C4CCCCC4)cc4c3C2=CNNC4=O)cn1` (stereo unspecified), the “EC50, CellTox Green” value was found to be 3.03 µM with MFM-223 [22]; 9.61 µM with Hs578T [23]; 1 µM with HDQ-P1 [24]; 1.13 µM in the assay on CAL-51 [10]; 5.28 µM in the assay with MDA-MB-468; 7.25 µM in the assay with MDA-MB-453 [25]. For the same compound, the “EC50, CellTox Green” value with BT-549 [26] amounted to 7.37 µM; in the assay with MDA-MB-231 [27] it was 0.255 µM; in the assay on CAL-85-1 [28], 0.0889 µM; in the assay on MCF-10A [29], 0.0896 µM. Besides, the “EC50, CellTiter-Glo” value came to 0.109 µM with MFM-223 [30]; 3.87 µM in the assay with HCC1937 [12]; 0.387 µM with Hs578T [13]; 0.13 µM in the assay on HCC1599 [14]; 1.43 µM in the assay on MDA-MB-436 [15]; 2.38 µM in the assay on CAL-51 [16]. The “EC50, CellTiter-Glo” value is 0.193 µM in the assay with SK-BR-3 [17]; 0.109 µM in the assay on MDA-MB-453 [31]; 9.44 µM in the assay on DU-4475 [18]; 5.05 µM in the assay with CAL-120 [32]; 0.397 µM with BT-549 [19]; 1.41 µM in the assay on MDA-MB-231 [33]. The “EC50, CellTiter-Glo” value was determined as 0.293 µM with CAL-85-1 [34], 2.71 µM in the assay on MCF-10A [35] and 1.73 µM with HCC1143 [20].
As for `COc1cc(F)c(F)c(Nc2ccc(I)cc2F)c1NS(=O)(=O)C1(C[C@H](O)CO)CC1` [Refametinib], the “EC50, CellTox Green” value was 2.69 µM in the assay with MDA-MB-468; 0.11 µM in the assay with DU-4475 [36]; > 10 µM with CAL-120 [37]; 0.0232 µM in the assay on MDA-MB-231 [27]; 0.788 µM in the assay on CAL-85-1 [28]. For the same compound, the “EC50, CellTiter-Glo” value in the assay on MFM-223 [30] came to 6.03 µM; in the assay on CAL-148 [11], 6.68 µM; with HCC1937 [12] it was 5.05 µM; in the assay on Hs578T [13] it was 6.15 µM; with MDA-MB-436 [15], 6.63 µM; in the assay on DU-4475 [18] it was 0.0636 µM. The “EC50, CellTiter-Glo” value worked out at 0.315 µM in the assay with CAL-120 [32]; 2.21 µM in the assay with BT-549 [19]; 0.429 µM in the assay with MDA-MB-231 [33]; 0.84 µM in the assay with CAL-85-1 [34]; 0.00698 µM in the assay with MCF-10A [35]; 1.62 µM with HCC1143 [20].
As to `Cn1cnc2c(F)c(Nc3ccc(Br)cc3Cl)c(C(=O)NOCCO)cc21` [Selumetinib], the “EC50, CellTiter-Blue viability” value with HCC1937 [1] was 1.07 µM; with Hs578T [2], > 10 µM; in the assay with HCC1599 [3], 0.283 µM; in the assay with CAL-120 [38], 7.5 µM; with MDA-MB-231 [39], 0.214 µM; with HCC1143 [6] it was 0.023 µM. Moreover, the entries for the “EC50, CellTiter-Blue viability” value in the assay with HDQ-P1 [7], in the assay with DU-4475 [40] and in the assay on CAL-85-1 [8] were 0.159 µM, 0.0708 µM and 0.563 µM, respectively. Also, the “EC50, CellTox Green” value is 0.324 µM in the assay with HDQ-P1 [24], 2.46 µM in the assay on MDA-MB-468, 0.172 µM in the assay on DU-4475 [36] and 0.724 µM in the assay with MDA-MB-231 [27]. Also, the “EC50, CellTiter-Glo” value in the assay with HCC1599 [14] stood at 1.67 µM; in the assay on DU-4475 [18], 0.21 µM; in the assay with CAL-120 [32], 9.28 µM; in the assay with MDA-MB-231 [33], 0.313 µM; in the assay with MCF-10A [35], 0.0204 µM.
Regarding `C[C@]1(O)C[C@@H](c2nc(-c3ccc4ccc(-c5ccccc5)nc4c3)c3c(N)nccn32)C1` [Linsitinib], the “EC50, CellTox Green” value with MDA-MB-436 [41] was 6 µM; in the assay on MDA-MB-231 [27] it was > 10 µM. Further, the “EC50, CellTiter-Glo” value is 1.94 µM with HCC1599 [14]; 1.46 µM in the assay with SK-BR-3 [17]; 0.892 µM in the assay on MDA-MB-453 [31]; 8.04 µM in the assay on CAL-120 [32]; 3.55 µM in the assay with CAL-85-1 [34]; 0.645 µM in the assay with MCF-10A [35]. Moreover, the “EC50, CellTiter-Glo” value in the assay on HCC1143 [20] is > 10 µM.
